Assay results as given in ChEMBL document CHEMBL4483862, “Open-source discovery of chemical leads for next-generation chemoprotective antimalarials” (2018).

Tested on: Plasmodium berghei
Assay: Luciferase/luciferin-expressing antifolate-resistant parasites were used to infect a culture of HepG2 cells that were pre-incubated with compounds. Infected hepatocytes emit light due to the luciferase reaction. Assay results are presented as the percent inhibition of light emission compared to control. […]
Type: functional
Settings: sporozoite; for IC90: read-out: LUCIFERASE INFECTION ASSAY - IC90
[1] = read-out: LUCIFERASE INFECTION ASSAY - IC50

SMILES	IC90	IC50 [1]	further results
COc1ccc(N(Cc2c(C#N)c(C)nn2-c2ccccc2)S(=O)(=O)c2ccc(C)cc2)cc1	> 10 µM	–	IC50 (HEPG2TOX_HILL_SLOPE 7.62, HEPG2TOX_R_SQUARED 0.552, PBLUC_HILL_SLOPE 10, PBLUC_R_SQUARED 0.432, read-out: LUCIFERASE INFECTION ASSAY - IC50): 9.18 µM
O=S(=O)(Cc1noc(-c2cccs2)n1)c1ccc(F)cc1	> 10.2 µM	> 10.2 µM	–
COCCn1c(C(=O)OC)c(NC(=O)c2ccco2)c2cc(NCCc3ccccc3)cnc21	> 7.14 µM	–	IC50 (PBLUC_HILL_SLOPE 0.526, PBLUC_R_SQUARED 0.429, read-out: LUCIFERASE INFECTION ASSAY - IC50): 4.07 µM
O=C(c1ccccc1)c1ccc(OCC(O)CNC2CCCCCCC2)cc1 (centres undefined)	> 10 µM	–	IC50 (PBLUC_HILL_SLOPE 1.94, PBLUC_R_SQUARED 0.684, read-out: LUCIFERASE INFECTION ASSAY - IC50): 6.28 µM
CCCS(=O)(=O)N1CCC(NC(=O)c2scnc2C)CC1	> 10 µM	> 10 µM	–
Oc1ccc(CN2CCN(c3ccccn3)CC2)c2cccnc12	> 10 µM	–	IC50 (HEPG2TOX_HILL_SLOPE 1.46, HEPG2TOX_R_SQUARED 0.941, PBLUC_HILL_SLOPE 3.25, PBLUC_R_SQUARED 0.21, read-out: LUCIFERASE INFECTION ASSAY - IC50): 7.97 µM
CC(C)(C)c1ccc(C(=N)SC(C(=O)C(F)(F)F)c2ccccc2)cc1 (centres undefined)	2.03 µM	–	IC50 (FFLUC_HILL_SLOPE 64.5, FFLUC_R_SQUARED 0.585, PBLUC_HILL_SLOPE 1.09, PBLUC_R_SQUARED 0.88, read-out: LUCIFERASE INFECTION ASSAY - IC50): 0.269 µM
Cc1cc(C)n(-c2ccc(S(N)(=O)=O)cc2)n1	> 13.1 µM	–	IC50 (FFLUC_HILL_SLOPE 0.55, FFLUC_R_SQUARED 0.0304, read-out: LUCIFERASE INFECTION ASSAY - IC50): > 13.1 µM
O=C(Nc1ccc(F)c(Cl)c1)N1CCc2nc(Nc3cc(Cl)cc(Cl)c3)ncc2C1	> 7.07 µM	> 7.07 µM	–
COc1ccc(-c2cnc3ccc(NCc4ccc5c(c4)OCO5)nn23)cc1	1.36 µM	0.746 µM	–
FC(F)(F)Oc1ccc(-c2cnc3ccc(NCc4ccncc4)nn23)cc1	1.17 µM	–	IC50 (HEPG2TOX_HILL_SLOPE 0.34, HEPG2TOX_R_SQUARED 0.62, PBLUC_HILL_SLOPE 3.72, PBLUC_R_SQUARED 0.739, read-out: LUCIFERASE INFECTION ASSAY - IC50): 0.649 µM
C/C(=N\NC(=S)Nc1cccc(C(F)(F)F)c1)c1cc(Cl)cc(Cl)c1O	> 7.82 µM	–	IC50 (PBLUC_HILL_SLOPE 20.9, PBLUC_R_SQUARED 0.295, read-out: LUCIFERASE INFECTION ASSAY - IC50): 7.78 µM
CC(C)(C)c1ccc(-n2nnnc2-c2ccccc2)cc1	> 11.9 µM	–	IC50 (PBLUC_HILL_SLOPE 1.83, PBLUC_R_SQUARED 0.134, read-out: LUCIFERASE INFECTION ASSAY - IC50): 6.62 µM
Cc1cc(C(=O)COc2ccc(-c3nnco3)cc2)c(C)n1-c1ccc(F)cc1	> 10 µM	8.4 µM	–
O=C(NCc1ccco1)/C(=C/c1cccc(C(F)(F)F)c1)c1nc2ccccc2[nH]1	7.5 µM	–	IC50 (FFLUC_HILL_SLOPE 10.6, FFLUC_R_SQUARED 0.24, HEPG2TOX_HILL_SLOPE 4.32, HEPG2TOX_R_SQUARED 0.946, PBLUC_HILL_SLOPE 6.31, PBLUC_R_SQUARED 0.466, read-out: LUCIFERASE INFECTION ASSAY - IC50): 5.3 µM
Cc1ccc(CSc2n[nH]c(=O)n2C2CC3C=CC2C3)cc1 (centres undefined)	> 10.5 µM	> 10.5 µM	–
COc1ccc(-c2cc(C(=O)N[C@@H](CCSC)c3nc4ccccc4[nH]3)c3ccccc3n2)cc1OC	8.04 µM	–	IC50 (PBLUC_HILL_SLOPE 3.46, PBLUC_R_SQUARED 0.459, read-out: LUCIFERASE INFECTION ASSAY - IC50): 4.26 µM
O=C(Nc1ccc(OCc2nnnn2-c2ccccc2)cc1)c1ccccc1	> 8.89 µM	> 8.89 µM	–
O=C(NCCCn1cnc2ccccc21)c1[nH]nc2ccccc12	> 10 µM	–	IC50 (HEPG2TOX_HILL_SLOPE 14.9, HEPG2TOX_R_SQUARED 0.872, PBLUC_HILL_SLOPE 4.15, PBLUC_R_SQUARED 0.429, read-out: LUCIFERASE INFECTION ASSAY - IC50): 6.32 µM
CC1SC(=Nc2ccc(S(=O)(=O)N3CCOCC3)cc2)NN=C1C12CC3CC(CC(C3)C1)C2 (centres undefined)	> 10 µM	> 10 µM	–
CCn1c2ccc(C(=O)N/N=C/c3cn(-c4ccccc4)nc3-c3ccc(OC(F)F)cc3)cc2c[n+]1C	> 10 µM	–	IC50 (PBLUC_HILL_SLOPE 9.98, PBLUC_R_SQUARED 0.817, read-out: LUCIFERASE INFECTION ASSAY - IC50): 8.1 µM
CCCCc1ccc2nc(NC(=O)c3cccnc3-n3cncn3)sc2c1	> 10 µM	–	IC50 (HEPG2TOX_HILL_SLOPE 2.58, HEPG2TOX_R_SQUARED 0.943, PBLUC_HILL_SLOPE 1.45, PBLUC_R_SQUARED 0.435, read-out: LUCIFERASE INFECTION ASSAY - IC50): 4 µM
CCOc1cc(C(=O)N(CC2CCCO2)C2CCS(=O)(=O)C2)cc(OCC)c1OCC (centres undefined)	> 10 µM	> 10 µM	–
CN(Cc1ccccc1N1CCOCC1)C(=O)/C=C/c1c(Cl)nc2ccccn12	> 10 µM	> 10 µM	–

SMILES	IC90	IC50 [1]	further results
O=C(Nc1nc(-c2ccc3c(c2)CCC3)cs1)c1ccc(CSc2nnc[nH]2)cc1	> 10 µM	–	IC50 (HEPG2TOX_HILL_SLOPE 14.2, HEPG2TOX_R_SQUARED 0.936, PBLUC_HILL_SLOPE 3.67, PBLUC_R_SQUARED 0.0328, read-out: LUCIFERASE INFECTION ASSAY - IC50): 6.58 µM
O=C(NNC(=O)c1ccccc1OCc1cn2ccccc2n1)c1ccc2ccccc2n1	1.74 µM	–	IC50 (HEPG2TOX_HILL_SLOPE 1.26, HEPG2TOX_R_SQUARED 0.832, PBLUC_HILL_SLOPE 7.59, PBLUC_R_SQUARED 0.237, read-out: LUCIFERASE INFECTION ASSAY - IC50): 1.31 µM
O=c1c(NS(=O)(=O)c2ccc(Cl)cc2)cccn1Cc1ccc(Cl)c(Cl)c1	> 7.44 µM	> 7.44 µM	–
COC(=O)c1cc(OC)c(OC)cc1NC(=O)c1ccc(-c2cccc(Br)c2)nc1C	> 10 µM	> 10 µM	–
FC(F)(F)Oc1ccc(Nc2n[nH]c(=S)s2)cc1	5 µM	–	IC50 (FFLUC_HILL_SLOPE 16.2, FFLUC_R_SQUARED 0.24, PBLUC_HILL_SLOPE 2.38, PBLUC_R_SQUARED 0.611, read-out: LUCIFERASE INFECTION ASSAY - IC50): 1.99 µM
CCCNC(=O)c1c(NC(=O)c2cccc(OC)c2)nc2ccc(C)cn12	8.77 µM	–	IC50 (HEPG2TOX_HILL_SLOPE 7.34, HEPG2TOX_R_SQUARED 0.277, PBLUC_HILL_SLOPE 3.84, PBLUC_R_SQUARED 0.328, read-out: LUCIFERASE INFECTION ASSAY - IC50): 4.95 µM
COc1ccc(NS(=O)(=O)c2ccc(/C=C/C(=O)N(C)Cc3ccc(OC)c(OC)c3OC)cc2)cc1	> 10 µM	–	IC50 (HEPG2TOX_HILL_SLOPE 0.416, HEPG2TOX_R_SQUARED 0.547, PBLUC_HILL_SLOPE 11.7, PBLUC_R_SQUARED 0.671, read-out: LUCIFERASE INFECTION ASSAY - IC50): 9.46 µM
O=C(CC1(O)C(=O)Nc2ccc(Br)cc21)c1ccc2c(c1)OCO2 (centres undefined)	> 8.46 µM	> 8.46 µM	–
NC(=O)N1CC=C(c2ccc(Oc3ncnc4sccc34)cc2)CC1	> 2 µM	> 2 µM	–
CC1=CC(=O)N(c2cc(Cl)cc(Cl)c2)C1=O	> 12.9 µM	> 12.9 µM	–
O=C1CN(CC(=O)N2N=C(c3ccc4ccccc4c3)CC2c2ccccc2)c2ccccc2N1 (centres undefined)	> 10 µM	–	IC50 (PBLUC_HILL_SLOPE 15.5, PBLUC_R_SQUARED 0.336, read-out: LUCIFERASE INFECTION ASSAY - IC50): 9.53 µM
CCOC(=O)C1CCCN(C(=O)Cc2cccc3ccccc23)CC1 (centres undefined)	> 9.72 µM	> 9.72 µM	–
O=C(CNc1ccccc1-c1ccccc1)Nc1cc(Cl)ccc1F	> 10 µM	> 10 µM	–
COc1ccc(Nc2cc(C)nc(-n3nc(C)cc3C)n2)cc1	4.19 µM	–	IC50 (HEPG2TOX_HILL_SLOPE 0.695, HEPG2TOX_R_SQUARED 0.68, PBLUC_HILL_SLOPE 2.57, PBLUC_R_SQUARED 0.661, read-out: LUCIFERASE INFECTION ASSAY - IC50): 1.78 µM
N=C1N/C(=N/NC(=O)c2ccc(CN3C(=O)c4cccc5cccc3c45)cc2)c2ccccc21	> 10 µM	–	IC50 (HEPG2TOX_HILL_SLOPE 8, HEPG2TOX_R_SQUARED 0.371, PBLUC_HILL_SLOPE 2.14, PBLUC_R_SQUARED 0.479, read-out: LUCIFERASE INFECTION ASSAY - IC50): 4.48 µM
Cc1ccc(C(=O)Nc2nc3cc4c(cc3s2)OCCO4)s1	> 10 µM	–	IC50 (PBLUC_HILL_SLOPE 9.57, PBLUC_R_SQUARED 0.436, read-out: LUCIFERASE INFECTION ASSAY - IC50): 8.59 µM
Cc1nc2ccccn2c1C(=O)N/N=C/c1c(-c2ccccc2)n(-c2ccccc2)c2ccccc12	> 10 µM	> 10 µM	–
CCOc1ccc(-c2nc(NC(=O)c3ccc(OC)c(S(=O)(=O)N(C)OC)c3)sc2C)cc1	> 10 µM	> 10 µM	–
C=CCn1c(-c2ccoc2C)nn(CN(C)Cc2nc3ccccc3s2)c1=S	> 10 µM	> 10 µM	–
Cc1cc(C(=O)CSC(c2ccccc2)c2ccccc2)c(C)n1C	> 10 µM	> 10 µM	–
CC(C)NC(=O)C1(C)CCN1C(=O)c1ccc(-c2ccccc2)cc1 (centres undefined)	> 9.81 µM	–	IC50 (PBLUC_HILL_SLOPE 1.28, PBLUC_R_SQUARED 0.251, read-out: LUCIFERASE INFECTION ASSAY - IC50): > 9.81 µM
COc1ccc(O)c(C(=O)c2cnc(Nc3nc(C)c4ccccc4n3)nc2)c1	> 10 µM	–	IC50 (FFLUC_HILL_SLOPE 8.56, FFLUC_R_SQUARED 0.251, read-out: LUCIFERASE INFECTION ASSAY - IC50): > 10 µM
CCOC(=O)c1c(-c2ccccc2)csc1NC(=O)Cn1ncc(Cl)c(Cl)c1=O	4.1 µM	3.35 µM	–
